pIC50: −log10 of the molar value.
Assays:
[1] = test system: Human non-small cell lung cancer cells NCI-H1299; assay: NCI-H1299 cell proliferation inhibition (CellTiter-Glo); assay type: cell-based; details: cultured 3 days, table head NCI-H1975, method NCI-H1299
Description: 2. Determination of Cell Proliferation Activity of Compounds:
NCI-H1299 cell proliferation inhibition screening method was established using CellTiter-fib detection reagent from Promega.
Human non-small cell lung cancer cells NCI-H1299 were cultured in 25 cm^2 or 75 cm^2 plastic tissue culture flasks (Corning) filled with DMEM (Gibco) medium supplemented with 10% fetal bovine serum (Hyclone) under 37° C., 95% air, and 5% CO2, and subcultured 2-3 times a week.
Cells were seeded at 1000 cells/well in a 96-well cell culture plate (Corning), 195 μL/well, and cultured under 37° C., 95% air, and 5% CO2. The next day test compound was added: 10 mM compounds (dissolved in DMSO) were subjected to 3-fold gradient dilution in DMSO, 2 μL of diluent from each concentration was added to 48 μL of serum-fret medium, and finally 5 μL of the diluted compound was added to the plate seeded with cells. The final concentration of DMSO in the cell culture was 0.1% and the foul concentration of the test compound was 0.3 nM-10 μM. The cells were cultured at 37° C. for 3 days.

[2] = target: T1, WEE1 kinase (Homo sapiens, UniProt P30291); assay: WEE1 kinase binding assay (LanthaScreen EU); details: WEE1 kinase 20 nM, Kinase Tracer 178 100 nM, 23° C. for 60 min, read-out: WEEI (IC50)
T1 construct: purchased Carna bioscience
T1 sequence (P30291 whole entry): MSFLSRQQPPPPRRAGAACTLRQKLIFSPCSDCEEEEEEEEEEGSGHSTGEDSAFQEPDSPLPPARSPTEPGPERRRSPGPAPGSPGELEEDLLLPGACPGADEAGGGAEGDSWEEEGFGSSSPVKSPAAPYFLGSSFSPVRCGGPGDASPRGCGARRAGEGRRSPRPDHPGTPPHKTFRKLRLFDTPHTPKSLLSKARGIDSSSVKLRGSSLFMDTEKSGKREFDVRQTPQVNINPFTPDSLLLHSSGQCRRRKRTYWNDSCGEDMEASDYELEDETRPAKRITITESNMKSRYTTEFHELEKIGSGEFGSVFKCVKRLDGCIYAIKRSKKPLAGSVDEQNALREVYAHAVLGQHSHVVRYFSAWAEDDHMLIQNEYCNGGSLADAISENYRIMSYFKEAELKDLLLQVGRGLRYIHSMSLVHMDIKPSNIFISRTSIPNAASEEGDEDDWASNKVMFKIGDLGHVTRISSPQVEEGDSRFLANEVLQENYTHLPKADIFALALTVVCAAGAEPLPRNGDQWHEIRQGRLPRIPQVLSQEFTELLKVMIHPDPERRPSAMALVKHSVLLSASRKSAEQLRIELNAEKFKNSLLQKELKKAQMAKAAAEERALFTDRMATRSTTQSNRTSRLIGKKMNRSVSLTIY
Description: 1. Assay for WEE1 Kinase Inhibitory Activity (IC50) on Compounds
The WEE1 kinase binding assay was established and optimized with LanthaScreen EU for the determination of the activity of compounds. 10 mM compounds were subjected to ten-fold gradient dilution in 100% DMSO (6 concentrations in total), 5 μL of diluent from each concentration was added to 45 μL of reaction buffer (50 mM HEPES (4-hydroxyethylpiperazine ethanesulfonic acid), pH 7.5, 10 mM MgCl2 (magnesium chloride), 1 mM EGTA (ethylene glycol diethyl ether diamine tetraacetic acid), 0.01% Brij-35 (polyoxyethylene lauryl ether)) for blending. On this basis, 2 μL diluent from each concentration was added to 48 μL of reaction buffer for blending as a 4*compound (final concentrations of 1000, 100, 10, 1, 0.1, 0 nM) for later use. Reaction buffer was used to formulate 4*WEE1 kinase (purchased from Carna bioscience, a final concentration of 20 nM), 4*LanthaScreen EU-anti-GST Antibody (purchased from Invitrogen, PV5594, a fuel concentration of 2 nM), and 4*Kinase Tracer 178 (purchased from Invitrogen, PV5593, a final concentration of 100 nM). 2.5 μL of 4*compound was added to a 384-well plate (OptiPlate-384, purchased from PerkinElmer), followed by adding 2.5 μL of 4*WEE1 kinase, standing for 5 min at room temperature. Then 2.5 μL of 4*LanthaScreen EU-anti-GST Antibody was added followed by 2.5 μL of 4*Kinase Tracer 178. The reaction was started by centrifugation (a total reaction volume of 10 μL). The 384-well plate was wrapped with tin foil paper and placed in an incubator at 23° C. for 60 min. Fluorescence values (excitation at 320 nm, detecting emitted light at 665 nm and 615 nm, and a ratio of the two as enzyme activity) were read on Envision (purchased from PerkinElmer). The enzyme activity of each compound was measured at 6 concentrations, and the IC50 value of the compound was calculated using GraFit6.0 software (Erithacus Software).
The aforementioned “*” refers to multiplying, representing multiples.

| Compound | pIC50 ([1]; Homo sapiens, 72 h) | pIC50 [2] | pIC50 [1] |
| --- | --- | --- | --- |
| CN1CCN(C2CCN(c3ccc(Nc4ncc5cc(C6CC6)n(-c6cccc(N=S(C)(C)=O)n6)c5n4)cc3F)CC2)CC1 [Example 48, ((6-(2-((3-fluoro-4-(4-(4-methylpiperazin-1-yl)piperidin-1-yl)phenyl)amino)-6-cyclopropyl-7H-pyrrolo[2,3-d]pyrimidin-7-yl)pyridin-2-yl)imino)dimethyl-λ^6-sulfanone] | 7.38 | 9.10 | – |
| Cc1cc(Nc2ncc3cc(C4CC4)n(-c4cccc(N=S(C)(C)=O)n4)c3n2)ccc1N1CCC(N2CCN(C)CC2)CC1 [Example 52, ((6-(2-((3-methyl-4-(4-(4-methylpiperazin-1-yl)piperidin-1-yl)phenyl)amino)-6-cyclopropyl-7H-pyrrolo[2,3-d]pyrimidin-7-yl)pyridin-2-yl)imino)dimethyl-λ^6-sulfanone] | 7.25 | 9.20 | – |
| CN1[C@@H]2CC[C@H]1CN(c1ccc(Nc3ncc4cc(C5CC5)n(-c5cccc(N=S(C)(C)=O)n5)c4n3)cc1)C2 [Example 81, ((6-(6-cyclopropyl-2-((4-((1R,5S)-8-methyl-3,8-diazabicyclo[3.2.1]octan-3-yl)phenyl)amino)-7H-pyrrolo[2,3-d]pyrimidin-7-yl)pyridin-2-yl)imino)dimethyl-λ^6-sulfanone] | 7.42 | 9.48 | – |
| CN1[C@@H]2CC[C@H]1CN(c1ccc(Nc3ncc4c(F)c(C5CC5)n(-c5cccc(N=S(C)(C)=O)n5)c4n3)cc1)C2 [Example 82, ((6-(6-cyclopropyl-5-fluoro-2-((4-((1R,5S)-8-methyl-3,8-diazabicyclo[3.2.1]octan-3-yl)phenyl)amino)-7H-pyrrolo[2,3-d]pyrimidin-7-yl)pyridin-2-yl)imino)dimethyl-Ab-sulfanone] | 7.19 | 9.24 | – |
| CN1CC2(CCN(c3ccc(Nc4ncc5cc(C6CC6)n(-c6cccc(N=S(C)(C)=O)n6)c5n4)cc3)CC2)C1 [Example 85, ((6-(6-cyclopropyl-2-((4-(2-methyl-2,7-diazaspiro[3.5]nonan-7-yl)phenyl)amino)-7H-pyrrolo[2,3-d]pyrimidin-7-yl)pyridin-2-yl)imino)dimethyl-λ^6-sulfanone] | 7.10 | 9.07 | – |
| CN1CC2(CCN(c3ccc(Nc4ncc5c(F)c(C6CC6)n(-c6cccc(N=S(C)(C)=O)n6)c5n4)cc3)CC2)C1 [Example 86, ((6-(6-cyclopropyl-5-fluoro-2-((4-(2-methyl-2,7-diazaspiro[3.5]nonan-7-yl)phenyl)amino)-7H-pyrrolo[2,3-d]pyrimidin-7-yl)pyridin-2-yl)imino)dimethyl-λ^6-sulfanone] | 7.22 | 9.27 | – |
| COc1cc(Nc2ncc3cc(C4CC4)n(-c4cccc(N=S(C)(C)=O)n4)c3n2)ccc1N1CCC(N2CCN(C)CC2)CC1 [Example 87, ((6-(6-cyclopropyl-2-((3-methoxy-4-(4-(4-methylpiperazin-1-yl)piperidin-1-yl)phenyl)amino)-7H-pyrrolo[2,3-d]pyrimidin-7-yl)pyridin-2-yl)imino)dimethyl-λ^6-sulfanone] | 7.05 | 9.01 | – |
| CC1(O)CN(N2CCN(c3ccc(Nc4ncc5cc(C6CC6)n(-c6cccc(N=S(C)(C)=O)n6)c5n4)cc3)CC2)C1 [Example 98, ((6-(6-cyclopropyl-2-((4-(4-(3-hydroxy-3-methylazetidin-1-yl)piperazin-1-yl)phenyl)-amino)-7H-pyrrolo[2,3-d]pyrimidin-7-yl)pyridin-2-yl)imino)dimethyl-λ^6-sulfanone] | – | 9.10 | 7.08 |
| CS(C)(=O)=Nc1cccc(-n2c(C3CC3)cc3cnc(Nc4ccc(N5CC6CCC(C5)N6)c(F)c4)nc32)n1 [Example 101, ((6-(2-((4-(3,8-diazabicyclo[3.2.1]octan-3-yl)-3-fluorophenyl)amino)-6-cyclopropyl-7H-pyrrolo[2,3-d]pyrimidin-7-yl)pyridin-2-yl)imino)dimethyl-λ^6-sulfanone] | 7.18 | 9.15 | – |
| CN(C)CCN1CCN(c2ccc(Nc3ncc4cc(C5CC5)n(-c5cccc(N=S(C)(C)=O)n5)c4n3)cc2)CC1 [Example 108] | 7.15 | 9.21 | – |
| CCCc1cc2cnc(Nc3ccc(N4CCN(C)CC4)cn3)nc2n1-c1cccc(N=S(C)(C)=O)n1 [Example 110, ((6-(6-propyl-2-((5-(4-methylpiperazin-1-yl)pyridin-2-yl)amino)-7H-pyrrolo[2,3-d]pyrimidin-7-yl)pyridin-2-yl)imino)dimethyl-λ^6-sulfanone] | – | 9.16 | 7.06 |
| CCCc1cc2cnc(Nc3ccc(N4CCC5(CCN(C)CC5)CC4)cc3)nc2n1-c1cccc(N=S(C)(C)=O)n1 [Example 123, ((6-(6-propyl-2-((4-(9-methyl-3,9-diazaspiro[5.5]undecan-3-yl)phenyl)amino)-7H-pyrrolo[2,3-d]pyrimidin-7-yl)pyridin-2-yl)imino)dimethyl-λ^6-sulfanone] | – | 9.52 | 7.36 |
| CN1CCC2(CC1)CCN(c1ccc(Nc3ncc4c(F)c(C5CC5)n(-c5cccc(N=S(C)(C)=O)n5)c4n3)cc1)CC2 [Example 126, ((6-(6-cyclopropyl-5-fluoro-2-((4-(9-methyl-3,9-diazaspiro(5.5)undecan-3-yl)phenyl)amino)-7H-pyrrolo[2,3-d]pyrimidin-7-yl)pyridin-2-yl)imino)dimethyl-λ^6-sulfanone] | 7.28 | 9.32 | – |
| COC(=O)CN1CCN(c2ccc(Nc3ncc4cc(C5CC5)n(-c5cccc(N=S(C)(C)=O)n5)c4n3)cc2)CC1 [Example 127] | 7.15 | 9.18 | – |
| C=C(C)c1cc2cnc(Nc3ccc(N4CCN(C)CC4)cc3)nc2n1-c1cccc(N=S(C)(C)=O)n1 [Example 135, dimethyl((6-(2-((4-(4-methylpiperazin-1-yl)phenyl)amino)-6-(prop-1-en-2-yl)-7H-pyrrolo[2,3-d]pyrimidin-7-yl)pyridin-2-yl)imino)-λ^6-sulfanone] | 7.13 | 9.17 | – |
| CCCc1cc2cnc(Nc3ccc(N4CCC(N5CCN(C)CC5)CC4)cc3)nc2n1-c1cccc(N=S(C)(C)=O)n1 [Example 136, dimethyl((6-(2-((4-(4-(4-methylpiperazin-1-yl)piperidin-1-yl)phenyl)amino)-6-propyl-7H-pyrrolo[2,3-d]pyrimidin-7-yl)pyridin-2-yl)imino)-λ^6-sulfanone] | 7.06 | 9.05 | – |
| Cc1cc2cnc(Nc3ccc(N4CCC5(CCN(C)CC5)CC4)cc3)nc2n1-c1cccc(N=S(C)(C)=O)n1 [Example 139, ((6-(6-methyl-2-((4-(9-methyl-3,9-diazaspiro[5.5]undecan-3-yl)phenyl)amino)-7H-pyrrolo[2,3-d]pyrimidin-7-yl)pyridin-2-yl)imino)dimethyl-λ^6-sulfanone] | – | 9.16 | 7.19 |
| Cc1cc2cnc(Nc3ccc(N4CCC5(CCN(C)CC5)CC4)cc3)nc2n1-c1cccc(C(C)(C)O)n1 [Example 147, 2-(6-(6-methyl-2-((4-(9-methyl-3,9-diazaspiro[5.5]undecan-3-yl)phenyl)amino)-7H-pyrrolo[2,3-d]pyrimidin-7-yl)pyridin 2-yl)propan-2-ol] | 7.07 | 9.04 | – |
| Cc1cc2cnc(Nc3ccc(N4CCC(N5CCN(C)CC5)CC4)cc3)nc2n1-c1cccc(N=S(C)(C)=O)n1 [Example 150] | 7.49 | 9.66 | – |
| Cc1cc2cnc(Nc3ccc(N4CCN(CCN(C)C)CC4)cc3)nc2n1-c1cccc(N=S(C)(C)=O)n1 [Example 151, ((6-(2-((4-(4-(2-(dimethylamino)ethyl)piperazin-1-yl)phenyl)amino)-6-methyl-7H-pyrrolo[2,3-d]pyrimidin-7-yl)pyridin-2-yl)imino)dimethyl-λ^6-sulfanone] | 7.18 | 9.22 | – |
| CCc1cc2cnc(Nc3ccc(N4CCN(C)CC4)cc3)nc2n1-c1cccc(N=S(C)(C)=O)n1 [Example 152] | 7.64 | 9.70 | – |

From US20220194960A1, “WEE1 INHIBITOR AND PREPARATION AND USE THEREOF” (SHOUYAO HOLDINGS (BEIJING) CO., LTD., priority 2019, published 2022)
